# Results from PubChem BioAssay (NCI).
#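 Results reflect a 48-hour exposure of cells in 96-well plates to compound at five concentrations. Abbreviation: GI50, concentration required for 50% inhibition of growth. The concentration for full growth arrest is given as TGI.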
# Experiments:
# Experiment in all cases: NCI-60 cell line screen, 48 h
# 786-0 renal = test system: 786-0 renal
# A498 renal = test system: A498 renal
# A549 NSCLC = test system: A549 NSCLC
# ACHN renal = test system: ACHN renal
# BT-549 breast = test system: BT-549 breast
# CAKI-1 renal = test system: CAKI-1 renal
# CCRF-CEM leukemia = test system: CCRF-CEM leukemia
# COLO 205 colon = test system: COLO 205 colon
# DU-145 prostate = test system: DU-145 prostate
# EKVX NSCLC = test system: EKVX NSCLC
# HCC-2998 colon = test system: HCC-2998 colon
# HCT-116 colon = test system: HCT-116 colon
# HCT-15 colon = test system: HCT-15 colon
# HL-60(TB) leukemia = test system: HL-60(TB) leukemia
# HOP-62 NSCLC = test system: HOP-62 NSCLC
# HOP-92 NSCLC = test system: HOP-92 NSCLC
# HS 578T breast = test system: HS 578T breast
# HT29 colon = test system: HT29 colon
# IGROV1 ovarian = test system: IGROV1 ovarian
# K-562 leukemia = test system: K-562 leukemia
# KM12 colon = test system: KM12 colon
# LOX IMVI melanoma = test system: LOX IMVI melanoma
# M14 melanoma = test system: M14 melanoma
# MALME-3M melanoma = test system: MALME-3M melanoma
# MCF7 breast = test system: MCF7 breast
# MDA-MB-231 breast = test system: MDA-MB-231 breast
# MDA-MB-435 = test system: MDA-MB-435
# MOLT-4 leukemia = test system: MOLT-4 leukemia
# NCI-H226 lung = test system: NCI-H226 lung
# NCI-H23 lung = test system: NCI-H23 lung
# NCI-H460 lung = test system: NCI-H460 lung
# NCI/ADR-RES ovarian = test system: NCI/ADR-RES ovarian
# OVCAR-3 ovarian = test system: OVCAR-3 ovarian
# OVCAR-4 ovarian = test system: OVCAR-4 ovarian
# OVCAR-5 ovarian = test system: OVCAR-5 ovarian
# PC-3 prostate = test system: PC-3 prostate
# RPMI-8226 leukemia = test system: RPMI-8226 leukemia
# SF-268 CNS = test system: SF-268 CNS
# SF-295 CNS = test system: SF-295 CNS
# SF-539 CNS = test system: SF-539 CNS
# SK-MEL-28 melanoma = test system: SK-MEL-28 melanoma
# SK-MEL-5 melanoma = test system: SK-MEL-5 melanoma
# SK-OV-3 ovarian = test system: SK-OV-3 ovarian
# SN12C renal = test system: SN12C renal
# SNB-19 CNS = test system: SNB-19 CNS
# SNB-75 CNS = test system: SNB-75 CNS
# SW-620 colon = test system: SW-620 colon
# T-47D breast = test system: T-47D breast
# TK-10 renal = test system: TK-10 renal
# U251 CNS = test system: U251 CNS
# UACC-62 melanoma = test system: UACC-62 melanoma
# UO-31 renal = test system: UO-31 renal
# NCI-H522 lung = test system: NCI-H522 lung
# OVCAR-8 ovarian = test system: OVCAR-8 ovarian
# RXF 393 renal = test system: RXF 393 renal
# SK-MEL-2 melanoma = test system: SK-MEL-2 melanoma
# SR leukemia = test system: SR leukemia
# UACC-257 melanoma = test system: UACC-257 melanoma
smiles,measurement,setting,value
CCCCNc1ccc(Nc2ccccc2)cc1,GI50,786-0 renal,10.4 µM
same,TGI,786-0 renal,74.6 µM
same,GI50,A498 renal,11.4 µM
same,TGI,A498 renal,> 100 µM
same,GI50,A549 NSCLC,4.38 µM
same,TGI,A549 NSCLC,52.9 µM
same,GI50,ACHN renal,16.7 µM
same,TGI,ACHN renal,> 100 µM
same,GI50,BT-549 breast,2.84 µM
same,TGI,BT-549 breast,21.6 µM
same,GI50,CAKI-1 renal,18.6 µM
same,TGI,CAKI-1 renal,88.5 µM
same,GI50,CCRF-CEM leukemia,2.93 µM
same,TGI,CCRF-CEM leukemia,> 100 µM
same,GI50,COLO 205 colon,2.77 µM
same,TGI,COLO 205 colon,11.7 µM
same,GI50,DU-145 prostate,7.87 µM
same,TGI,DU-145 prostate,> 100 µM
same,GI50,EKVX NSCLC,3.53 µM
same,TGI,EKVX NSCLC,> 100 µM
same,GI50,HCC-2998 colon,5.73 µM
same,TGI,HCC-2998 colon,> 100 µM
same,GI50,HCT-116 colon,2.97 µM
same,TGI,HCT-116 colon,22.7 µM
same,GI50,HCT-15 colon,21.3 µM
same,TGI,HCT-15 colon,> 100 µM
same,GI50,HL-60(TB) leukemia,2.05 µM
same,TGI,HL-60(TB) leukemia,5.35 µM
same,GI50,HOP-62 NSCLC,14.4 µM
same,TGI,HOP-62 NSCLC,71.4 µM
same,GI50,HOP-92 NSCLC,3.42 µM
same,TGI,HOP-92 NSCLC,32.5 µM
same,GI50,HS 578T breast,5.11 µM
same,TGI,HS 578T breast,73.7 µM
same,GI50,HT29 colon,4.37 µM
same,TGI,HT29 colon,25.1 µM
same,GI50,IGROV1 ovarian,5.61 µM
same,TGI,IGROV1 ovarian,27.2 µM
same,GI50,K-562 leukemia,2.45 µM
same,TGI,K-562 leukemia,12 µM
same,GI50,KM12 colon,4.02 µM
same,TGI,KM12 colon,32.6 µM
same,GI50,LOX IMVI melanoma,5.85 µM
same,TGI,LOX IMVI melanoma,21.5 µM
same,GI50,M14 melanoma,6.3 µM
same,TGI,M14 melanoma,31.3 µM
same,GI50,MALME-3M melanoma,3.8 µM
same,TGI,MALME-3M melanoma,28.8 µM
same,GI50,MCF7 breast,3.74 µM
same,TGI,MCF7 breast,28 µM
same,GI50,MDA-MB-231 breast,16.9 µM
same,TGI,MDA-MB-231 breast,95 µM
same,GI50,MDA-MB-435,3.29 µM
same,TGI,MDA-MB-435,24.3 µM
same,GI50,MOLT-4 leukemia,3.23 µM
same,TGI,MOLT-4 leukemia,25.9 µM
same,GI50,NCI-H226 lung,12.5 µM
same,TGI,NCI-H226 lung,> 100 µM
same,GI50,NCI-H23 lung,3.15 µM
same,TGI,NCI-H23 lung,43 µM
same,GI50,NCI-H460 lung,4.61 µM
same,TGI,NCI-H460 lung,43 µM
same,GI50,NCI/ADR-RES ovarian,21.5 µM
same,TGI,NCI/ADR-RES ovarian,> 100 µM
same,GI50,OVCAR-3 ovarian,3.79 µM
same,TGI,OVCAR-3 ovarian,> 100 µM
same,GI50,OVCAR-4 ovarian,4.35 µM
same,TGI,OVCAR-4 ovarian,> 100 µM
same,GI50,OVCAR-5 ovarian,29 µM
same,TGI,OVCAR-5 ovarian,> 100 µM
same,GI50,PC-3 prostate,3.15 µM
same,TGI,PC-3 prostate,38.2 µM
same,GI50,RPMI-8226 leukemia,1.72 µM
same,TGI,RPMI-8226 leukemia,4.86 µM
same,GI50,SF-268 CNS,13.3 µM
same,TGI,SF-268 CNS,> 100 µM
same,GI50,SF-295 CNS,4.63 µM
same,TGI,SF-295 CNS,64.4 µM
same,GI50,SF-539 CNS,11.8 µM
same,TGI,SF-539 CNS,57.3 µM
same,GI50,SK-MEL-28 melanoma,10.4 µM
same,TGI,SK-MEL-28 melanoma,60.2 µM
same,GI50,SK-MEL-5 melanoma,2.78 µM
same,TGI,SK-MEL-5 melanoma,10.1 µM
same,GI50,SK-OV-3 ovarian,12.6 µM
same,TGI,SK-OV-3 ovarian,70.3 µM
same,GI50,SN12C renal,6.28 µM
same,TGI,SN12C renal,> 100 µM
same,GI50,SNB-19 CNS,5.19 µM
same,TGI,SNB-19 CNS,> 100 µM
same,GI50,SNB-75 CNS,8.46 µM
same,TGI,SNB-75 CNS,61.9 µM
same,GI50,SW-620 colon,5.06 µM
same,TGI,SW-620 colon,> 100 µM
same,GI50,T-47D breast,1.65 µM
same,TGI,T-47D breast,47 µM
same,GI50,TK-10 renal,4.27 µM
same,TGI,TK-10 renal,56.3 µM
same,GI50,U251 CNS,3.89 µM
same,TGI,U251 CNS,> 100 µM
same,GI50,UACC-62 melanoma,8.2 µM
same,TGI,UACC-62 melanoma,> 100 µM
same,GI50,UO-31 renal,14.4 µM
same,TGI,UO-31 renal,43.1 µM
CN(CCC(=O)/C(=C\c1ccccc1)c1ccc(Cl)cc1)Cc1ccccc1,GI50,786-0 renal,2.03 µM
same,TGI,786-0 renal,4.1 µM
same,GI50,A498 renal,3.45 µM
same,TGI,A498 renal,12.6 µM
same,GI50,A549 NSCLC,12.8 µM
same,TGI,A549 NSCLC,31.9 µM
same,GI50,ACHN renal,2.25 µM
same,TGI,ACHN renal,5.46 µM
same,GI50,BT-549 breast,2.94 µM
same,TGI,BT-549 breast,8.76 µM
same,GI50,CAKI-1 renal,3.54 µM
same,TGI,CAKI-1 renal,12.5 µM
same,GI50,CCRF-CEM leukemia,1.44 µM
same,TGI,CCRF-CEM leukemia,6.91 µM
same,GI50,COLO 205 colon,2.75 µM
same,TGI,COLO 205 colon,7.24 µM
same,GI50,DU-145 prostate,2.35 µM
same,TGI,DU-145 prostate,6.78 µM
same,GI50,EKVX NSCLC,5.37 µM
same,TGI,EKVX NSCLC,18.8 µM
same,GI50,HCC-2998 colon,3.54 µM
same,TGI,HCC-2998 colon,9.77 µM
same,GI50,HCT-116 colon,2.35 µM
same,TGI,HCT-116 colon,5.73 µM
same,GI50,HCT-15 colon,2.42 µM
same,TGI,HCT-15 colon,7.05 µM
same,GI50,HL-60(TB) leukemia,5.95 µM
same,TGI,HL-60(TB) leukemia,34.5 µM
same,GI50,HOP-62 NSCLC,2.87 µM
same,TGI,HOP-62 NSCLC,7.46 µM
same,GI50,HOP-92 NSCLC,2.55 µM
same,TGI,HOP-92 NSCLC,6.16 µM
same,GI50,HS 578T breast,3.99 µM
same,TGI,HS 578T breast,47.5 µM
same,GI50,HT29 colon,2.28 µM
same,TGI,HT29 colon,5.2 µM
same,GI50,K-562 leukemia,2.16 µM
same,TGI,K-562 leukemia,13.1 µM
same,GI50,KM12 colon,3.07 µM
same,TGI,KM12 colon,11 µM
same,GI50,M14 melanoma,2.7 µM
same,TGI,M14 melanoma,7.99 µM
same,GI50,MALME-3M melanoma,3.23 µM
same,TGI,MALME-3M melanoma,11.8 µM
same,GI50,MCF7 breast,2.06 µM
same,TGI,MCF7 breast,16.5 µM
same,GI50,MDA-MB-435,1.83 µM
same,TGI,MDA-MB-435,4.07 µM
same,GI50,MOLT-4 leukemia,1.49 µM
same,TGI,MOLT-4 leukemia,6.88 µM
same,GI50,NCI-H226 lung,2.44 µM
same,TGI,NCI-H226 lung,5.53 µM
same,GI50,NCI-H23 lung,2.94 µM
same,TGI,NCI-H23 lung,8.62 µM
same,GI50,NCI-H460 lung,3.18 µM
same,TGI,NCI-H460 lung,11.2 µM
same,GI50,NCI-H522 lung,1.69 µM
same,TGI,NCI-H522 lung,3.19 µM
same,GI50,NCI/ADR-RES ovarian,3.68 µM
same,TGI,NCI/ADR-RES ovarian,> 100 µM
same,GI50,OVCAR-3 ovarian,2.03 µM
same,TGI,OVCAR-3 ovarian,5.04 µM
same,GI50,OVCAR-4 ovarian,3.15 µM
same,TGI,OVCAR-4 ovarian,12.7 µM
same,GI50,OVCAR-5 ovarian,3.53 µM
same,TGI,OVCAR-5 ovarian,10.4 µM
same,GI50,OVCAR-8 ovarian,3.32 µM
same,TGI,OVCAR-8 ovarian,14.8 µM
same,GI50,PC-3 prostate,2.93 µM
same,TGI,PC-3 prostate,9.49 µM
same,GI50,RXF 393 renal,1.86 µM
same,TGI,RXF 393 renal,3.69 µM
same,GI50,SF-268 CNS,2.76 µM
same,TGI,SF-268 CNS,10 µM
same,GI50,SF-295 CNS,2.76 µM
same,TGI,SF-295 CNS,7.5 µM
same,GI50,SF-539 CNS,2.74 µM
same,TGI,SF-539 CNS,6.88 µM
same,GI50,SK-MEL-2 melanoma,2.6 µM
same,TGI,SK-MEL-2 melanoma,7.23 µM
same,GI50,SK-MEL-5 melanoma,3.44 µM
same,TGI,SK-MEL-5 melanoma,13.1 µM
same,GI50,SK-OV-3 ovarian,12.7 µM
same,TGI,SK-OV-3 ovarian,26.4 µM
same,GI50,SN12C renal,2.38 µM
same,TGI,SN12C renal,6.39 µM
same,GI50,SNB-19 CNS,3.92 µM
same,TGI,SNB-19 CNS,19.1 µM
same,GI50,SNB-75 CNS,10.2 µM
same,TGI,SNB-75 CNS,31.8 µM
same,GI50,SR leukemia,0.521 µM
same,TGI,SR leukemia,5.81 µM
same,GI50,SW-620 colon,2.63 µM
same,TGI,SW-620 colon,7.74 µM
same,GI50,T-47D breast,2.5 µM
same,TGI,T-47D breast,9.01 µM
same,GI50,TK-10 renal,2.34 µM
same,TGI,TK-10 renal,5.43 µM
same,GI50,U251 CNS,1.9 µM
same,TGI,U251 CNS,4.35 µM
same,GI50,UACC-257 melanoma,10.7 µM
same,TGI,UACC-257 melanoma,24.2 µM
same,GI50,UACC-62 melanoma,1.91 µM
same,TGI,UACC-62 melanoma,4.37 µM
same,GI50,UO-31 renal,1.74 µM
same,TGI,UO-31 renal,3.63 µM
